The values that follow come from patent US9579337B2, “Use of uridine and deoxyuridine to treat folate-responsive pathologies” (priority 2011, dated 2017).

SMILES strings stand for the structures.

In series [1] the test system is Shmt1-deficient embryos (NTDs, exencephaly). As to the kind of experiment: Neural tube defects (exencephaly) in embryos of Shmt1 dams fed nucleoside-supplemented diets. It counts as in vivo, mouse. Conditions: for Shmt1+/+ embryos with exencephaly: crosses involving Shmt1+/+ dams; for prevention of NTDs by supplementation of the folate-deficient (FD) diet: maternal folate deficiency, 0.2% thymidine or 0.1% 2'-deoxyuridine in diet. The text has this:
NTDs were examined in litters harvested from crosses of 129SvEv-Shmt1 (N=10 and more) mice. Shmt1^+/−, Shm1^+/+, and Shmt1^−/− mice were generated from Shmt1^+/− breeding pairs maintained as a heterozygote breeding colonies. Shmt1^+/+ and Shmt1^−/− female mice were then crossed to Shmt1^+/− male mice for timed mating experiments, as described below.
Mice were maintained on a 12-hour light/dark cycle in a temperature-controlled room. For studies investigating Shmt1 disruption and NTDs, female mice were randomly assigned at weaning to experimental AIN93G diets containing folic acid (C) or AIN93G lacking folic acid (FD) (FIG. 2) and including 0.6% uridine (Rudolph F B & Van Buren C T (1993), which is hereby incorporated by reference in its entirety), 0.2% thymidine (Iwasa et al., “The Well-Balanced Nucleoside-Nucleotide Mixture ‘0G-VI’ for Special Medical Purposes,” Nutrition 13(4):361-364 (1997), which is hereby incorporated by reference in its entirety), or 0.1% 2′-Deoxyuridine supplementation (Dyets, Bethlehem, Pa.). Diets were assigned with these abbreviations: AIN-93G as control (“C”); Folate Deficient (“FD”), C+ supplemented with 0.6% uridine (“C+U”), C+ supplemented with 0.2% thymidine (“C+T”), C+ supplemented with 0.1% 2′-Deoxyuridine (“C+dU”), FD+ supplemented with 0.6% uridine (“FD+U”), FD+ supplemented with 0.2% thymidine (“FD+T”), FD+ supplemented with 0.1% 2′-Deoxyuridine (“FD+dU”).
(§1) For all studies, mouse dams were maintained on diet from weaning throughout the breeding period and for the duration of gestation, until killed. Virgin female mice aged 70-120 days were housed overnight with males. The following morning, females were examined for the presence of a vaginal plug. Nine o'clock a.m. the day of the plug appearance was designated as gestational day 0.5 (E0.5). Pregnant females were sacrificed by cervical dislocation at E11.5 and blood was collected by cardiac puncture. Gravid uteri were removed and all implants and resorption sites were recorded. Embryos were examined for presence of NTDs and measured for crown-rump length. All yolk sacs were collected for subsequent genotyping. Embryos were extracted at E11.5 and rapidly frozen in liquid nitrogen followed by storage at −80° C. for biochemical analyses. Embryos examined for morphological abnormalities were derived at E11.5, and fixed in 10% neutral buffered formalin.
Analysis of NTD incidence, including differences between Genotypes, Diets, and interactions of Diet×genotype were analyzed by 2-factor ANOVA by using Tukey's honestly significant difference for post hoc analysis.

Series [2] concerns embryos and litters of Shmt1 dams. As to the kind of experiment: Implants, resorptions, dead embryos and crown-rump length in litters of Shmt1 dams. It counts as in vivo, mouse. The settings on record: for implantation, dead embryos occurrence, rates of resorption compared with C diet: litters from dams.
Source text: as §1
Analysis of embryonic CR length, total litter resorptions and implants was analyzed by 2-factor ANOVA with Tukey's honestly significant difference for post hoc analysis, in which litter was considered as a random effect. Independent variables included maternal genotype and diet. Resorption rate was calculated as the ratio of resorptions/total implants per litter and log-transformation was applied to normalize the data. Chi-squared analyses were used to assess any deviation from expected genotype ratios based on Mendelian inheritance. Analysis of uracil concentration, Thymidine, deoxyuridine, glucose and folate were conducted by 2-factor ANOVA with Tukey honestly significant differences for post hoc analysis. Independent variables included maternal genotype and diet. All test were performed in JMP version 8.02 (SAS institute). Western blots analyses were assessed using ANOVA and Dunnett's Multiple Comparison Test. […] All statistics were performed using GraphPad Prism version 4.00 for Windows, GraphPad Software, San Diego Calif. USA.

Series [3] deals with intestinal tumors in Apc-min mice. The experiment in a line: Intestinal tumor number in Apc-min mice fed supplemented diets. The class given is in vivo, mouse. The settings on record: for intestinal tumors (number per mouse): AIN-93G diet lacking folic acid supplemented with 0.6% uridine or 0.1% deoxyuridine, FD alone 35+/-5. An excerpt:
SHMT1 null ([…]) mice were generated as previously described (MacFarlane et al., “Cytoplasmic Serine Hydroxymethyltransferase Regulates the Metabolic Partitioning of Methylenetetrahydrofolate but is Not Essential in Mice,” J. Biol. Chem. 283(38):25846-25853 (2008), which is hereby incorporated by reference in its entirety) and backcrossed a minimum of 10 generations onto the C57BL/6J strain. Mice were genotyped using the forward primer 5′-GACACTGTTCACATCCCTC-3′ (SEQ ID NO:1) and the reverse primer 5′-CAAAACATTCGGGAGCCTC-3′ (SEQ ID NO:2). The forward primer corresponds to an intron 6 sequence located 5′ to a loxP site and exon 7 and the reverse primer corresponds to an intron 7 sequence located downstream of a 3′ loxP site (MacFarlane et al., “Cytoplasmic Serine Hydroxymethyltransferase Regulates the Metabolic Partitioning of Methylenetetrahydrofolate but is Not Essential in Mice,” J. Biol. Chem. 283(38):25846-25853 (2008), which is hereby incorporated by reference in its entirety). C57BL/6J-Apc^Min/J (Apc^min/+) mice were obtained. Genotyping of Apc^min/+ mice was performed using the following primers recommended by The Jackson Laboratory protocol: wild-type forward primer 5′-GCCATCCCTTCACGTTAG-3′ (SEQ ID NO:3), Min forward primer 5′-[…]-3′ (SEQ ID NO:4), and a common reverse primer 5′-TTCCACTTTGGCATAAGGC-3′ (SEQ ID NO:5). […]
The small intestine and colon were removed, flushed with cold PBS, opened longitudinally, and laid flat lumen side up for examination using a dissecting microscope as previously described (Chiu et al., “Sulindac Causes Rapid Regression of Preexisting Tumors in Min/+Mice Independent of Prostaglandin Biosynthesis,” Cancer Res. 57:4267-73 (1997), which is hereby incorporated by reference in its entirety). Tumors were counted according to intestinal location (small intestine or colon) and their diameter measured by a pathologist-trained investigator who was blinded to the genotype of the intestinal specimen. Tumor load is a function of tumor number and area and was calculated as the total tumor area per mouse. […]

The next series has as its system splotch mutant (Pax3^Sp). The settings on record: splotch mutant / splotch homozygotes; literature (Wlodarczyk 2005; Fleming 1998; others); cited from earlier work.
The subject of another series is female mice. As to the kind of experiment: Gross observations in female mice weaned on the diets. The class given is in vivo, mouse.
[4] abbreviates: Shmt1-/- dams fed FD+T diet (0.2% thymidine), out of 32.
Where [5] appears, read: Shmt1+/+ dams, C+U diet (inferred), out of 69.
Setting [6] is: Shmt1+/+ female mice fed FD+U diet (0.6% uridine), out of 56.

On to `Cc1cn([C@H]2C[C@H](O)[C@@H](CO)O2)c(=O)[nH]c1=O` [thymidine, reference compound], for which the “number of embryos with NTDs” value in series [1] (Shmt1+/+ dams fed FD+T diet (0.2% thymidine), out of 49) is given as 2 NTDs. Besides, the “frequency of NTDs (exencephaly) in embryos” value in series [1] (Shmt1+/+ dams fed FD+T diet (AIN93G lacking folic acid + 0.2% thymidine), out of 49) is recorded as 4.1%. Besides, in series [1] (setting [4]), the “frequency of NTDs (exencephaly) in embryos” value is given as 9.4% and the “number of embryos with NTDs” value turned out to be 3 NTDs. Moreover, in series [1], the “Shmt1+/+ embryos with exencephaly” value is recorded as “one”; the “prevention of NTDs by supplementation of the folate-deficient (FD) diet” value is “did not prevent NTD occurrence and not”. In addition, in series [1] (dams fed C+T diet (AIN-93G + 0.2% thymidine)), the NTD occurrence entry was “No NTDs were uncovered”.
For the compound `O=c1ccn([C@@H]2O[C@H](CO)[C@@H](O)[C@H]2O)c(=O)[nH]1` [uridine], the “implantation, dead embryos occurrence, rates of resorption compared with C diet” value in series [2] was “Neither implantation, dead embryos occurrence, or rates of resorption were significantly different”. Besides, the “intestinal tumors (number per mouse)” value in series [3] is given as 18+/−2. In addition, the “frequency of exencephaly in embryos” value in series [1] (setting [5]) is listed as 5.8%; in series [1] (setting [6]), 5.4%; in series [1] (Shmt1-/- dams fed FD+U diet (folate deficient + 0.6% uridine), of 44 viable embryos), 15.9%; in series [1] (Shmt1-/- dams, C+U diet (AIN-93G + 0.6% uridine; diet inferred from next sentence), out of 50 viable embryos) it was 6%. Further, the “number of embryos with NTDs” value came to 4 NTDs in series [1] (setting [5]) and 3 NTDs in series [1] (Shmt1-/- dams, C+U diet (inferred), out of 50 viable embryos). Further, the “number of embryos with exencephaly” value was 3 in series [1] (setting [6]) and 7 in series [1] (Shmt1-/- dams fed FD+U diet (0.6% uridine), of 44 viable embryos). In series [1], the “Shmt1+/+ embryos with exencephaly” value is “One”. In addition, the “effect on NTD frequency” value in series [1] (uridine supplementation, independent of dietary folic acid) is on record as “exacerbated NTD frequency”.
`Nc1nc2ncc(CNc3ccc(C(=O)N[C@@H](CCC(=O)O)C(=O)O)cc3)nc2c(=O)[nH]1` [folic acid]: the “rescue / prevention of NTDs by dietary supplementation” value in the series with splotch mutant (Pax3^Sp) is reported as “can be rescued”.
On to `O=c1ccn([C@H]2C[C@H](O)[C@@H](CO)O2)c(=O)[nH]1` [deoxyuridine, 2′-Deoxyuridine], for which the “number of dead embryos” value in series [2] (dams fed FD+dU and C+dU diets (0.1% 2'-deoxyuridine)) was “higher number of dead embryos, but the differences did not reach significance”. Also, in series [2], the “implantation, dead embryos occurrence, rates of resorption compared with C diet” value is “Neither implantation, dead embryos occurrence, or rates of resorption were significantly different”. The other gross findings result in the series with female mice (dU and dUFD groups) was “Edematous of internal organs (up to 4 mice from dU and dUFD groups together), blood in GI track and uterus, and discoloration of pancreas”. The “lymphoid aggregates on colons compared to other groups” value in the series with female mice (female mice weaned on C+dU and FD+dU) is recorded as “High frequency of numerous lymphoid aggregates”. Also, the “intestinal tumors (number per mouse)” value in series [3] is 29+/−2.0. In addition, the “effect on tumor number” value in series [3] (FD diet + 0.1% deoxyuridine) is “no effect on tumor number”. Further, the NTD occurrence result in series [1] (Shmt1+/+ and Shmt1-/- dams fed FD+dU diet (folic acid deficient + 0.1% 2'-deoxyuridine)) is reported as “did not exhibit NTDs”. Moreover, the “prevention of NTDs by supplementation of the folate-deficient (FD) diet” value in series [1] is “prevented NTDs”.
